Test results taken from publication PMC6693348 (Journal of medicinal chemistry, 2019).
Where two headings read alike, the source gives them in different places.

Columns and labels:
[1] = test system: epidermal growth factor receptor (EGFR); settings: cited from earlier work
[2] = reference standard; cited from earlier work
EGFR protein ECD = EGFR protein ECD (Homo sapiens, UniProt P00533); test: Surface plasmon resonance with immobilized EGFR; assay type: binding; settings: analyte 0–300 μM

LARLLT [D4]
affinity for EGFR ([1]; both in vitro and in vivo): high affinity

CN(C)c1ccc2nc3ccc(=[N+](C)C)cc-3sc2c1 [methylene blue]
ΦF (fluorescence quantum yield) [2]: 0.035

8-(3,5-Dimethoxyphenyl)-bis(3-p-isothio-cyanato phenyl)-BODIPY [BODIPY 10]
specificity of binding to EGFR ECD (sensorgrams) (EGFR protein ECD): nonspecific binding or weak binding

YHWY-GYTPQNVI [GE11]
affinity for EGFR ([1]; both in vitro and in vivo): high affinity

cyclo(K(N3)larllt)
affinity for EGFR [1]: high affinity
